Test results taken from patent US12263248B2, “Compounds and compositions for intracellular delivery of therapeutic agents” (ModernaTX, Inc., priority 2018, dated 2025).

Key:
[1] = Tissue distribution and liver tissue clearance of lipid after weekly intravenous doses to CD-1 mice; format: in vivo; details: liver tissue, 0.25 mg/kg mRNA, weekly dosing
Excerpt: FIGS. 30A-30C are a series of graphs showing the pharmacokinetic and expression profile of Compound 18 after multiple doses. FIG. […]
FIGS. 35A and 35B are a pair of graphs comparing the tissue distribution of MC3 and compound 18.

[2] = One month toxicology evaluation in non-human primate: serum ALT and AST; format: in vivo; details: cynomolgus monkeys, 1 mg/kg mRNA, intravenously by 60 min infusion, dosed weekly, 24 post fifth dose; PBS pre-dose vs day 30 levels
Method: FIGS. 32A-32C are a series of graphs summarizing the results of a one month toxicology evaluation in rat and non-human primate. PBS (phosphate buffered saline) was used as a control. […] The serum levels were measured 24 post fifth dose (n=4). […] The serum levels were measured 24 post fifth dose (n=4).

[3] = test system: IL-6, MCP-1; assay: Cytokine induction in non-human primates; format: in vivo, Cynomolgus monkeys
Method: The tolerability and efficacy of nanoparticle compositions to non-human primates was also investigated using a sample formulation including Compound 18. The formulation was prepared according to the standard MC3 formulation described above and included an hEPO mRNA. Primates were administered a single dose of 0.05 (Group 1), 0.3 (Group 2), or 1.0 (Group 3) mpk via intravenous infusion for 60 minutes. Three primates were administered each dose. Expression of hEPO was measured prior to dosing and at 2, 6, 24, 48, and 96 hours post-treatment (Table 26). Table 28 includes levels of indicators of complement activation, while Table 29 includes cytokine induction data.
hEPO ELISA for NHP samples: Human Epo levels were measured using a human erythropoietin immunoassay. Cytokines levels were measured using a non-human primate cytokine kit.

[4] = Lipid clearance from mouse tissues after weekly dosing; format: in vivo; details: for lipid levels in tissues after weekly dosing: mouse, 0.05 mg/kg mRNA on day 1, 8 and 15
Method: Repeat dosing of mRNA in an MC3-based LNP for a therapeutic indication would be expected to lead to accumulation of MC3 in tissues, based on the measured half-life. Therefore it was investigated whether the favorable single dose pharmacokinetics of compound 18 were maintained with weekly dosing. Clearance of MC3 and compound 18 from multiple mouse tissues was measured after dosing 0.05 mg/kg mRNA on day 1, 8 and 15 (FIG. 30A). Following dosing with MC3 LNPs, lipid was detected in liver, spleen, plasma, kidney, heart and lung, with liver and spleen containing the largest concentrations (FIG. 30A, for full panel of tissues see FIG. 35A). […] Compound 18 was also detected in plasma, lung, and kidney, but not in heart (FIG. 35A).
In vitro metabolite identification studies using compound 18 were also performed. […] The disappearance of parent compound 18 and the primary metabolite, compound 166, from mouse liver tissue was measured after dosing 0.25 mg/kg mRNA on days 1, 8, and 15.

[5] = rat, MC3-based mRNA containing LNP, 0.3 mg/kg dose mRNA; cited from earlier work

CCCCCCCCCOC(=O)CCCCCCCN(CCO)CCCCCCCC(=O)OC(CCCCCCCC)CCCCCCCC [Compound 18, Heptadecan-9-yl 8-((2-hydroxyethyl)(8-(nonyloxy)-8-oxooctyl)amino)octanoate]
primary metabolite [1]: compound 166
serum alanine aminotransferase levels [2]: No statistical difference
serum aspartate aminotransferase levels [2]: No statistical difference
IFNg ([3]; 0.05 mpk, 2 h): 18.8 pg/mL
IFNα ([3]; 0.05 mpk, 2 h): 18.8 pg/mL
IL-1b ([3]; 0.05 mpk, 2 h): 18.8 pg/mL
IL-6 ([3]; 0.05 mpk, 2 h): 18.8 pg/mL
MCP-1 ([3]; 0.05 mpk, 2 h): 342 pg/mL
TNF-α ([3]; 0.05 mpk, 2 h): 18.8 pg/mL
IFNg ([3]; 0.05 mpk, 6 h): 18.8 pg/mL
IFNα ([3]; 0.05 mpk, 6 h): 18.8 pg/mL
IL-1b ([3]; 0.05 mpk, 6 h): 18.8 pg/mL
IL-6 ([3]; 0.05 mpk, 6 h): 18.8 pg/mL
MCP-1 ([3]; 0.05 mpk, 6 h): 543 pg/mL
TNF-α ([3]; 0.05 mpk, 6 h): 41.5 pg/mL
IFNg ([3]; 0.05 mpk, 24 h): 18.8 pg/mL
IFNα ([3]; 0.05 mpk, 24 h): 18.8 pg/mL
IL-1b ([3]; 0.05 mpk, 24 h): 18.8 pg/mL
IL-6 ([3]; 0.05 mpk, 24 h): 18.8 pg/mL
MCP-1 ([3]; 0.05 mpk, 24 h): 236 pg/mL
TNF-α ([3]; 0.05 mpk, 24 h): 17.6 pg/mL
IFNg ([3]; 0.05 mpk, Day 5): 39.3 pg/mL
IFNα ([3]; 0.05 mpk, Day 5): 18.8 pg/mL
IL-1b ([3]; 0.05 mpk, Day 5): 18.8 pg/mL
IL-6 ([3]; 0.05 mpk, Day 5): 18.8 pg/mL
MCP-1 ([3]; 0.05 mpk, Day 5): 232 pg/mL
TNF-α ([3]; 0.05 mpk, Day 5): 63.5 pg/mL
IFNg ([3]; 0.05 mpk, Predose): 18.8 pg/mL
IFNα ([3]; 0.05 mpk, Predose): 18.8 pg/mL
IL-1b ([3]; 0.05 mpk, Predose): 18.8 pg/mL
IL-6 ([3]; 0.05 mpk, Predose): 18.8 pg/mL
MCP-1 ([3]; 0.05 mpk, Predose): 192 pg/mL
TNF-α ([3]; 0.05 mpk, Predose): 18.8 pg/mL
IFNg ([3]; 0.3 mpk, 2 h): 18.8 pg/mL
IFNα ([3]; 0.3 mpk, 2 h): 18.8 pg/mL
IL-1b ([3]; 0.3 mpk, 2 h): 18.8 pg/mL
IL-6 ([3]; 0.3 mpk, 2 h): 191 pg/mL
MCP-1 ([3]; 0.3 mpk, 2 h): 3018 pg/mL
TNF-α ([3]; 0.3 mpk, 2 h): 38.2 pg/mL
IFNg ([3]; 0.3 mpk, 6 h): 18.8 pg/mL
IFNα ([3]; 0.3 mpk, 6 h): 18.8 pg/mL
IL-1b ([3]; 0.3 mpk, 6 h): 18.8 pg/mL
IL-6 ([3]; 0.3 mpk, 6 h): 33.0 pg/mL
MCP-1 ([3]; 0.3 mpk, 6 h): 2011 pg/mL
TNF-α ([3]; 0.3 mpk, 6 h): 32.5 pg/mL
IFNg ([3]; 0.3 mpk, 24 h): 18.8 pg/mL
IFNα ([3]; 0.3 mpk, 24 h): 18.8 pg/mL
IL-1b ([3]; 0.3 mpk, 24 h): 18.8 pg/mL
IL-6 ([3]; 0.3 mpk, 24 h): 18.8 pg/mL
MCP-1 ([3]; 0.3 mpk, 24 h): 404 pg/mL
TNF-α ([3]; 0.3 mpk, 24 h): 59.6 pg/mL
IFNg ([3]; 0.3 mpk, Day 5): 18.8 pg/mL
IFNα ([3]; 0.3 mpk, Day 5): 18.8 pg/mL
IL-1b ([3]; 0.3 mpk, Day 5): 18.8 pg/mL
IL-6 ([3]; 0.3 mpk, Day 5): 18.8 pg/mL
MCP-1 ([3]; 0.3 mpk, Day 5): 211 pg/mL
TNF-α ([3]; 0.3 mpk, Day 5): 18.8 pg/mL
IFNg ([3]; 0.3 mpk, Predose): 18.8 pg/mL
IFNα ([3]; 0.3 mpk, Predose): 18.8 pg/mL
IL-1b ([3]; 0.3 mpk, Predose): 18.8 pg/mL
IL-6 ([3]; 0.3 mpk, Predose): 18.8 pg/mL
MCP-1 ([3]; 0.3 mpk, Predose): 168 pg/mL
TNF-α ([3]; 0.3 mpk, Predose): 18.8 pg/mL
IFNg ([3]; 1.0 mpk, 2 h): 35.8 pg/mL
IFNα ([3]; 1.0 mpk, 2 h): 18.8 pg/mL
IL-1b ([3]; 1.0 mpk, 2 h): 33.4 pg/mL
IL-6 ([3]; 1.0 mpk, 2 h): 834 pg/mL
MCP-1 ([3]; 1.0 mpk, 2 h): 4221 pg/mL
TNF-α ([3]; 1.0 mpk, 2 h): 18.8 pg/mL
IFNg ([3]; 1.0 mpk, 6 h): 38.9 pg/mL
IFNα ([3]; 1.0 mpk, 6 h): 18.8 pg/mL
IL-1b ([3]; 1.0 mpk, 6 h): 18.8 pg/mL
IL-6 ([3]; 1.0 mpk, 6 h): 398 pg/mL
MCP-1 ([3]; 1.0 mpk, 6 h): 3945 pg/mL
TNF-α ([3]; 1.0 mpk, 6 h): 18.8 pg/mL
IFNg ([3]; 1.0 mpk, 24 h): 18.8 pg/mL
IFNα ([3]; 1.0 mpk, 24 h): 18.8 pg/mL
IL-1b ([3]; 1.0 mpk, 24 h): 18.8 pg/mL
IL-6 ([3]; 1.0 mpk, 24 h): 31.4 pg/mL
MCP-1 ([3]; 1.0 mpk, 24 h): 1444 pg/mL
TNF-α ([3]; 1.0 mpk, 24 h): 46.2 pg/mL
IFNg ([3]; 1.0 mpk, Day 5): 18.8 pg/mL
IFNα ([3]; 1.0 mpk, Day 5): 18.8 pg/mL
IL-1b ([3]; 1.0 mpk, Day 5): 18.8 pg/mL
IL-6 ([3]; 1.0 mpk, Day 5): 18.8 pg/mL
MCP-1 ([3]; 1.0 mpk, Day 5): 225 pg/mL
TNF-α ([3]; 1.0 mpk, Day 5): 41.9 pg/mL
IFNg ([3]; 1.0 mpk, Predose): 18.8 pg/mL
IFNα ([3]; 1.0 mpk, Predose): 18.8 pg/mL
IL-1b ([3]; 1.0 mpk, Predose): 18.8 pg/mL
IL-6 ([3]; 1.0 mpk, Predose): 18.8 pg/mL
MCP-1 ([3]; 1.0 mpk, Predose): 235 pg/mL
TNF-α ([3]; 1.0 mpk, Predose): 18.8 pg/mL
disappearance from mouse liver tissue ([4]; 0.25 mg/kg mRNA on days 1, 8, and 15): rapid clearance
lipid levels in tissues after weekly dosing [4]: significantly lower levels than MC3

CCCCC/C=C\C/C=C\CCCCCCCCC(CCCCCCCC/C=C\C/C=C\CCCCC)OC(=O)CCCN(C)C [MC3, DLin-MC3-DMA, reference compound]
lipid levels in tissues after weekly dosing [4]: Accumulation of MC3 was observed after each dose
ALT, AST and pathology [5]: ALT and AST were elevated and pathology showed evidence of necrosis
